Results reported in patent US20230157952A1, “METHOD FOR IMPROVING THE STABILITY OF A PHARMACEUTICAL COMPOSITION COMPRISING A HIGH PENETRATION DRUG, AND THE PHARMACEUTICAL COMPOSITION OBTAINED THEREFROM” (Techfields Inc., priority 2020, published 2023).

Experiment: Effect of temperature (and pH) on the stability of the solution (purity)
Type: physicochemical

CCN(CC)CCOC(=O)CCc1nc(-c2ccccc2)c(-c2ccccc2)o1.Cl
Purity(%) at day 0 (7% solution in water, pH 1.0, day 0): 98.2 ± 0.3% | Purity(%) at day 21 (5° C.) (7% solution in water, pH 1.0, day 21, 5° C.): 90.1 ± 0.3% | Purity(%) at day 21 (25° C.) (7% solution in water, pH 1.0, day 21, 25° C.): 59.9 ± 0.3% | Purity(%) at day 21 (40° C.) (7% solution in water, pH 1.0, day 21, 40° C.): 7.9 ± 0.3% | Purity (%) at day 21 (60° C.) (7% solution in water, pH 1.0, day 21, 60° C.): 0% | Purity(%) at day 0 (7% solution in water, pH 2.0, day 0): 98.4 ± 0.3% | Purity(%) at day 21 (5° C.) (7% solution in water, pH 2.0, day 21, 5° C.): 93.0 ± 0.2% | Purity(%) at day 21 (25° C.) (7% solution in water, pH 2.0, day 21, 25° C.): 74.8 ± 0.2% | Purity(%) at day 21 (40° C.) (7% solution in water, pH 2.0, day 21, 40° C.): 17.6 ± 0.2% | Purity (%) at day 21 (60° C.) (7% solution in water, pH 2.0, day 21, 60° C.): 0% | Purity(%) at day 0 (7% solution in water, pH 3.0, day 0): 98.6 ± 0.1% | Purity(%) at day 21 (5° C.) (7% solution in water, pH 3.0, day 21, 5° C.): 96.9 ± 0.2% | Purity(%) at day 21 (25° C.) (7% solution in water, pH 3.0, day 21, 25° C.): 88.9 ± 0.2% | Purity(%) at day 21 (40° C.) (7% solution in water, pH 3.0, day 21, 40° C.): 36.4 ± 0.2% | Purity (%) at day 21 (60° C.) (7% solution in water, pH 3.0, day 21, 60° C.): 0% | Purity(%) at day 0 (7% solution in water, pH 3.7, day 0): 98.7 ± 0.2% | Purity(%) at day 21 (5° C.) (7% solution in water, pH 3.7, day 21, 5° C.): 97.8 ± 0.1% | Purity(%) at day 21 (25° C.) (7% solution in water, pH 3.7, day 21, 25° C.): 94.5 ± 0.2% | Purity(%) at day 21 (40° C.) (7% solution in water, pH 3.7, day 21, 40° C.): 50.6 ± 0.2% | Purity (%) at day 21 (60° C.) (7% solution in water, pH 3.7, day 21, 60° C.): 7.3 ± 0.3% | Purity(%) at day 0 (7% solution in water, pH 4.0, day 0): 98.8 ± 0.1% | Purity(%) at day 21 (5° C.) (7% solution in water, pH 4.0, day 21, 5° C.): 97.9 ± 0.1% | Purity(%) at day 21 (25° C.) (7% solution in water, pH 4.0, day 21, 25° C.): 95.1 ± 0.1% | Purity(%) at day 21 (40° C.) (7% solution in water, pH 4.0, day 21, 40° C.): 53.2 ± 0.2% | Purity (%) at day 21 (60° C.) (7% solution in water, pH 4.0, day 21, 60° C.): 20.2 ± 0.2% | Purity(%) at day 0 (7% solution in water, pH 4.3, day 0): 98.8 ± 0.2% | Purity(%) at day 21 (5° C.) (7% solution in water, pH 4.3, day 21, 5° C.): 97.9 ± 0.2% | Purity(%) at day 21 (25° C.) (7% solution in water, pH 4.3, day 21, 25° C.): 95.2 ± 0.2% | Purity(%) at day 21 (40° C.) (7% solution in water, pH 4.3, day 21, 40° C.): 54.8 ± 0.1% | Purity (%) at day 21 (60° C.) (7% solution in water, pH 4.3, day 21, 60° C.): 21.8 ± 0.3% | Purity(%) at day 0 (7% solution in water, pH 4.6, day 0): 98.7 ± 0.1% | Purity(%) at day 21 (5° C.) (7% solution in water, pH 4.6, day 21, 5° C.): 97.8 ± 0.2% | Purity(%) at day 21 (25° C.) (7% solution in water, pH 4.6, day 21, 25° C.): 95.0 ± 0.1% | Purity(%) at day 21 (40° C.) (7% solution in water, pH 4.6, day 21, 40° C.): 54.7 ± 0.2% | Purity (%) at day 21 (60° C.) (7% solution in water, pH 4.6, day 21, 60° C.): 15.5 ± 0.3% | Purity(%) at day 0 (7% solution in water, pH 5.0, day 0): 98.6 ± 0.3% | Purity(%) at day 21 (5° C.) (7% solution in water, pH 5.0, day 21, 5° C.): 96.3 ± 0.2% | Purity(%) at day 21 (25° C.) (7% solution in water, pH 5.0, day 21, 25° C.): 89.8 ± 0.1% | Purity(%) at day 21 (40° C.) (7% solution in water, pH 5.0, day 21, 40° C.): 30.1 ± 0.2% | Purity (%) at day 21 (60° C.) (7% solution in water, pH 5.0, day 21, 60° C.): 3.2 ± 0.2% | Purity(%) at day 0 (7% solution in water, pH 6.0, day 0): 98.4 ± 0.2% | Purity(%) at day 21 (5° C.) (7% solution in water, pH 6.0, day 21, 5° C.): 93.4 ± 0.2% | Purity(%) at day 21 (25° C.) (7% solution in water, pH 6.0, day 21, 25° C.): 73.9 ± 0.2% | Purity(%) at day 21 (40° C.) (7% solution in water, pH 6.0, day 21, 40° C.): 16.5 ± 0.2% | Purity (%) at day 21 (60° C.) (7% solution in water, pH 6.0, day 21, 60° C.): 0% | Purity(%) at day 0 (7% solution in water, pH 7.0, day 0): 98.2 ± 0.3% | Purity(%) at day 21 (5° C.) (7% solution in water, pH 7.0, day 21, 5° C.): 89.2 ± 0.3% | Purity(%) at day 21 (25° C.) (7% solution in water, pH 7.0, day 21, 25° C.): 59.7 ± 0.2% | Purity(%) at day 21 (40° C.) (7% solution in water, pH 7.0, day 21, 40° C.): 7.1 ± 0.3% | Purity (%) at day 21 (60° C.) (7% solution in water, pH 7.0, day 21, 60° C.): 0% | Purity(%) at day 0 (7% solution in water, pH 8.0, day 0): 98.0 ± 0.3% | Purity(%) at day 21 (5° C.) (7% solution in water, pH 8.0, day 21, 5° C.): 77.1 ± 0.3% | Purity(%) at day 21 (25° C.) (7% solution in water, pH 8.0, day 21, 25° C.): 40.8 ± 0.3% | Purity(%) at day 21 (40° C.) (7% solution in water, pH 8.0, day 21, 40° C.): 0% | Purity (%) at day 21 (60° C.) (7% solution in water, pH 8.0, day 21, 60° C.): 0%

CCN(CC)CCOC(=O)[C@H](C)c1ccc2cc(OC)ccc2c1.Cl (racemic)
Purity (%) at day 21 (60° C.) (pH 1.02, 7% solution in water): 0% | Purity(%) at day 21 (5° C.) (pH 1.02, 7% solution in water): 93.8 ± 0.2% | Purity(%) at day 21 (25° C.) (pH 1.02, 7% solution in water): 72.2 ± 0.2% | Purity(%) at day 21 (40° C.) (pH 1.02, 7% solution in water): 18.1 ± 0.3% | Purity (%) at day 21 (60° C.) (pH 2.09, 7% solution in water): 0% | Purity(%) at day 21 (25° C.) (pH 2.09, 7% solution in water): 86.3 ± 0.2% | Purity(%) at day 21 (40° C.) (pH 2.09, 7% solution in water): 30.2 ± 0.4% | Purity (%) at day 21 (60° C.) (pH 3.00, 7% solution in water): 7.9 ± 0.2% | Purity(%) at day 21 (25° C.) (pH 3.00, 7% solution in water): 96.3 ± 0.2% | Purity(%) at day 21 (40° C.) (pH 3.00, 7% solution in water): 56.7 ± 0.2% | Purity (%) at day 21 (60° C.) (pH 3.68, 7% solution in water): 15.3 ± 0.4% | Purity(%) at day 21 (40° C.) (pH 3.68, 7% solution in water): 63.7 ± 0.2% | Purity (%) at day 21 (60° C.) (pH 4.07, 7% solution in water): 21.5 ± 0.3% | Purity(%) at day 21 (40° C.) (pH 4.07, 7% solution in water): 72.5 ± 0.3% | Purity (%) at day 21 (60° C.) (pH 4.35, 7% solution in water): 18.7 ± 0.2% | Purity(%) at day 21 (40° C.) (pH 4.35, 7% solution in water): 72.3 ± 0.2% | Purity (%) at day 21 (60° C.) (pH 4.67, 7% solution in water): 10.6 ± 0.2% | Purity(%) at day 21 (40° C.) (pH 4.67, 7% solution in water): 58.5 ± 0.2% | Purity (%) at day 21 (60° C.) (pH 4.95, 7% solution in water): 3.1 ± 0.3% | Purity(%) at day 21 (25° C.) (pH 4.95, 7% solution in water): 95.5 ± 0.3% | Purity(%) at day 21 (40° C.) (pH 4.95, 7% solution in water): 50.6 ± 0.2% | Purity (%) at day 21 (60° C.) (pH 5.98, 7% solution in water): 0% | Purity(%) at day 21 (5° C.) (pH 5.98, 7% solution in water): 96.1 ± 0.2% | Purity(%) at day 21 (25° C.) (pH 5.98, 7% solution in water): 90.7 ± 0.3% | Purity(%) at day 21 (40° C.) (pH 5.98, 7% solution in water): 30.3 ± 0.3% | Purity (%) at day 21 (60° C.) (pH 6.98, 7% solution in water): 0% | Purity(%) at day 21 (5° C.) (pH 6.98, 7% solution in water): 90.9 ± 0.2% | Purity(%) at day 21 (25° C.) (pH 6.98, 7% solution in water): 70.8 ± 0.2% | Purity(%) at day 21 (40° C.) (pH 6.98, 7% solution in water): 19.9 ± 0.3% | Purity (%) at day 21 (60° C.) (pH 8.01, 7% solution in water): 0% | Purity(%) at day 21 (5° C.) (pH 8.01, 7% solution in water): 81.9 ± 0.2% | Purity(%) at day 21 (25° C.) (pH 8.01, 7% solution in water): 58.8 ± 0.2% | Purity(%) at day 21 (40° C.) (pH 8.01, 7% solution in water): 0%
